Earlier results as cited in paper PMC9230590, “Pharmacokinetics and Tissue Distribution of Enavogliflozin in Mice and Rats” (Pharmaceutics, 2022).
Like-named read-outs stand apart in the source and are kept apart here.

Tests used:
HbA1c = conditions: cited from earlier work
[1] = cited from earlier work
[2] = rats and humans, single oral dose of [14C]dapagliflozin; cited from earlier work
[3] = design: method as in PMID 32183468; conditions: mice; cited from earlier work
[4] = single oral administration of [14C]canagliflozin
[5] = single oral administration of [14C]ipragliflozin

## Cc1ccc([C@@H]2O[C@H](CO)[C@@H](O)[C@H](O)[C@H]2O)cc1Cc1ccc(-c2ccc(F)cc2)s1 [canagliflozin]
HbA1c; untreated type 2 diabetic (T2DM) patients
  reduction of HbA1c: 0.97%
[1]; [4]
  fecal recovery of radioactivity: 85.4–93.7%
  hydroxylated metabolites in fecal recovery: 7.6–64.3%
  unchanged drug in fecal recovery: 3.5–38.7%

## CCOc1ccc(Cc2cc([C@@H]3O[C@H](CO)[C@@H](O)[C@H](O)[C@H]3O)ccc2Cl)cc1 [dapagliflozin]
HbA1c; monotherapy 2.5–10 mg, once daily for 24 weeks, untreated T2DM patients
  reduction in HbA1c values: 0.67–0.84%
HbA1c; with conventional anti-diabetes medication, meta-analysis
  reduction of mean HbA1c compared with conventional monotherapy: 0.54%
[2]
  drug-related radioactivity (parent and glucuronide metabolite) recovered in urine: more than 90%
[3]
  ratio of AUC in kidney to AUC in plasma: 64.6 ± 31.8

## OC[C@H]1O[C@@H](c2ccc(Cl)c(Cc3ccc(O[C@H]4CCOC4)cc3)c2)[C@H](O)[C@@H](O)[C@@H]1O [empagliflozin]
HbA1c; empagliflozin-treated patients
  reduction of HbA1c: 0.74–0.85%

## OC[C@H]1O[C@@H](c2ccc(F)c(Cc3cc4ccccc4s3)c2)[C@H](O)[C@@H](O)[C@@H]1O [ipragliflozin]
[1]; [5]
  cumulative fecal recovery of drug-related radioactivity: 86.9% ± 2.6%
  glucuronide metabolite identified in feces: about 64%
  unchanged drug identified in feces: less than 5%
[3]
  ratio of AUC in kidney to AUC in plasma: 38.4 ± 5.3
